Where a SMILES comes first, the peptide text is derived from it. [ ]: non-standard residue; d: D form. The star is where a group is joined. ξ: configuration not given here. NMeW = CN[C@@H](Cc1c[nH]c2ccccc12)C(=O)O; Stearoyl = CCCCCCCCCCCCCCCCCC(=O)*; ξIle = CC[C@H](C)C(N)C(=O)O; ξαMeV = CC(C)C(C)(N)C(=O)O; ξαMeS = CC(N)(CO)C(=O)O; Piv = CC(C)(C)C(=O)*; βAla = NCCC(=O)O
What was measured:
[1] = test system: colon cancer cell line (SW480); type: cell-based; details: for Cell growth / viability: SW480, peptide added daily, 7 days
Experimental: Peptides inhibiting β-catenin cause decreased cell viability in a colon cancer cell line (SW480) and endometriosis lesions excised from a disease animal model. Peptides from libraries described herein are characterized in their effect on cell viability, as measured using a luminescent cell viability assay (Cell Titer-Glo®, Promega, Madison, WI) and expressed as IC50 in Table 5. Peptide inhibitors were tested for their ability to inhibit cellular proliferation across 2 different β-catenin expressing pathogenic cell lines: a colon cancer cell line (SW480) and/or mouse EMS lesion cells derived from mouse model of disease. Both cells lines are naturally known to express high levels of β-catenin. Cell lines were incubated with varying concentrations of peptide concentration and assessed for viability after day 5 and 7 days. The CellTiter-Glo® Luminescent Cell Viability Assay (Promega) is used to detect viable cells. IC50 values are graphed and calculated using Prism software (GraphPad) based on the cell viability readouts. IC50 is used to assess inhibition of cell proliferation by peptide concentration and is used to calculate the inhibitory effect of each peptide across each line. The results are used to assess the therapeutic potency of the peptides. In the SW480 cell line, peptide inhibitors from Family 1 (SEQ ID NO:264) and Family 2 (SEQ ID NO:396) were added daily to the cell growth medium. After 7 days, cell viability was assessed with the Cell-Titer Glo kit (Promega, Madison, WI). […] IC50 was calculated for peptides based on the concentration at which 50% viability was observed (Table 5).

[2] = target: Wnt-responsive promoter (TCF/LEF); experiment: Wnt-dependent luciferase reporter assay; type: cell-based, murine
Method in brief: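 EC50 (uM) derived from inhibition of luminescence in Wnt3a-stimulated murine 3T3 cells expressing luciferase under a TCF/LEF promoter, with peptides added across a concentration range and vehicle as control.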

[3] = target: T1, β-catenin (Homo sapiens, UniProt P35222); experiment: KD50 measurement using competitive fluorescence polarization (FP) with labelled TCF4; type: binding; details: fluorescence polarization, β-catenin; for Kd: read-out: β-Cat FP KD
T1 sequence (P35222 1-781): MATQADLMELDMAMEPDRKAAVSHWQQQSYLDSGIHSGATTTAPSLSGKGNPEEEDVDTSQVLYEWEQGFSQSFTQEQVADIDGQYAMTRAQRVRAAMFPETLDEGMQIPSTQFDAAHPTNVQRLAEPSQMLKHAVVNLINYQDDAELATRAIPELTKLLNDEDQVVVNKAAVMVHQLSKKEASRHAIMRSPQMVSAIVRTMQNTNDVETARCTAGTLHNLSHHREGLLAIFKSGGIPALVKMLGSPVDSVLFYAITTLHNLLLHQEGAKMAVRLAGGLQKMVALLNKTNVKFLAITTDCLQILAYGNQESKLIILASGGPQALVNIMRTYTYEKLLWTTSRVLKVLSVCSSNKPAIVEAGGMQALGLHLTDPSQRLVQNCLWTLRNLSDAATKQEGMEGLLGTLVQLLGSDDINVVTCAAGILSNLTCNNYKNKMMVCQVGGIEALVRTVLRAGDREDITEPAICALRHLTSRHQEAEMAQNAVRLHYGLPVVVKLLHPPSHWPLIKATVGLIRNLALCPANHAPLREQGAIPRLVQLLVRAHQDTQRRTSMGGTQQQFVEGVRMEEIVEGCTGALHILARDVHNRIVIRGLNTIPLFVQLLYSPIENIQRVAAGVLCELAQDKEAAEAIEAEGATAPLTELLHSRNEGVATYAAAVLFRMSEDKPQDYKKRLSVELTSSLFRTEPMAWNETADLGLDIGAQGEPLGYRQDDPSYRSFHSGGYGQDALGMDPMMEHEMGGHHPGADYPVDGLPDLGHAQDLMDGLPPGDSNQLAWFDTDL
Method in brief: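 5 nM labelled TCF4 was combined with 100 nM β-catenin at room temperature, then inhibitor was titrated in serial dilutions from 10 nM to 30 uM. Polarization was read at excitation 470 nm, emission 520 nm; displacement lowers the signal. Three independent experiments.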

[4] = in vitro; details: % Viability non-Wnt responsive cells

| Structure (SMILES) | IC50 [1] [µM] | EC50 [2] [µM] | β-Cat FP Hill slope [3] | Kd [3] [µM] | viability [4] [%] | Cell growth / viability [1] |
| --- | --- | --- | --- | --- | --- | --- |
| CCCCCCCCCCCCCCCCCC(=O)NCCC(=O)N[C@@H](Cc1c[nH]c2ccccc12)C(=O)N(C)[C@@H](Cc1c[nH]c2ccccc12)C(=O)N[C@@H](CCC(=O)O)C(=O)NC(C)(CO)C(=O)N[C@H](C(=O)N[C@@H](CC(C)C)C(=O)N[C@@H](CC(=O)O)C(=O)N[C@@H](CCC(=O)O)C(=O)N[C@@H](Cc1c[nH]cn1)C(=O)NC(C)(C(=O)N[C@@H](CCC(N)=O)C(=O)N[C@@H](CCCNC(=N)N)C(=O)N[C@H](C(=O)N[C@@H](Cc1c[nH]c2ccccc12)C(=O)NCC(=O)O)C(C)C)C(C)C)[C@@H](C)CC (stereo partly drawn) [compound 391] ({Stearoyl-βAla}-W[NMeW]E[ξαMeS]ILDEH[ξαMeV]QRVWG-OH) | 4.8 | < 7.5 | – | – | – | – |
| CC[C@H](C)[C@@H]1NC(=O)[C@H](Cc2c[nH]cn2)NC(=O)[C@H](CCC(=O)O)NC(=O)[C@H](Cc2ccccc2)NC(=O)[C@H](Cc2c[nH]c3ccccc23)NC(=O)[C@H](CO)NC(=O)[C@H]([C@@H](C)CC)NC(=O)[C@H](C)N(C)C(=O)[C@H](CC(C)C)NC(=O)[C@@H]2CCCN2C(=O)[C@H](CCSC)NC(=O)[C@@H](N)CCCCNC(=O)CNC1=O [compound 29] (HELM PEPTIDE1{K.M.P.L.[meA].I.S.W.F.E.H.I.G}$PEPTIDE1,PEPTIDE1,1:R3-13:R2$$$V2.0; bridges inferred) | – | > 30 | 1.72 | 0.4 to 1 | 107 | – |
| CC[C@H](C)[C@H](NC(=O)[C@H](CC(C)C)NC(=O)[C@H](Cc1ccccc1)NC(=O)[C@H](Cc1c[nH]c2ccccc12)NC(=O)[C@H](CCSC)NC(=O)[C@H](CCCNC(=N)N)NC(=O)[C@H](CO)NC(=O)[C@@H](N)CCSC)C(=O)N[C@@H](CO)C(=O)N[C@@H](Cc1ccccc1)C(=O)N[C@@H](Cc1c[nH]c2ccccc12)C(=O)N(C)[C@@H](C)C(=O)NCC(=O)O [compound 16] (HELM PEPTIDE1{M.S.R.M.W.F.L.I.S.F.W.[meA].G}$$$$V2.0) | – | 15 to 22.5 | – | > 30 | 92 | – |
| CC[C@H](C)[C@@H]1NC(=O)[C@H](CO)NC(=O)[C@H](CCC(=O)O)NC(=O)[C@H](C)N(C)C(=O)[C@H](CCSC)NC(=O)[C@@H](N)CCCCNC(=O)CNC(=O)[C@H](Cc2c[nH]c3ccccc23)NC(=O)[C@H](C(C)C)NC(=O)[C@H](CCCNC(=N)N)NC(=O)[C@H](CCC(N)=O)NC(=O)[C@H](C(C)C)NC(=O)[C@H](Cc2c[nH]cn2)NC(=O)[C@H](CCC(=O)O)NC(=O)[C@H](CC(=O)O)NC(=O)[C@H](CC(C)C)NC1=O [compound 30] (HELM PEPTIDE1{K.M.[meA].E.S.I.L.D.E.H.V.Q.R.V.W.G}$PEPTIDE1,PEPTIDE1,1:R3-16:R2$$$V2.0; bridges inferred) | – | > 30 | 0.7 | 1 to 10 | 106 | – |
| CC[C@H](C)[C@@H]1NC(=O)[C@H](CC(C)C)NC(=O)[C@H](Cc2ccccc2)NC(=O)[C@H](Cc2c[nH]c3ccccc23)NC(=O)[C@H](CCSC)NC(=O)[C@H](CCCNC(=N)N)NC(=O)[C@H](CO)NC(=O)[C@H](CCSC)NC(=O)[C@@H](N)CCCCNC(=O)CNC(=O)[C@H](CCCNC(=N)N)NC(=O)[C@H](Cc2c[nH]c3ccccc23)NC(=O)[C@H](Cc2ccccc2)NC(=O)[C@H](CO)NC1=O [compound 24] (HELM PEPTIDE1{K.M.S.R.M.W.F.L.I.S.F.W.R.G}$PEPTIDE1,PEPTIDE1,1:R3-14:R2$$$V2.0; bridges inferred) | – | > 30 | 1 | < 0.4 | 96.8 | – |
| CC[C@H](C)[C@H](NC(=O)[C@H](CC(C)C)NC(=O)[C@@H](NC(=O)[C@H](Cc1c[nH]c2ccccc12)NC(=O)[C@H](CCSC)N(C)C)[C@@H](C)CC)C(=O)N[C@@H](CO)C(=O)N[C@@H](Cc1ccccc1)C(=O)N[C@@H](Cc1c[nH]c2ccccc12)C(=O)NCC(=O)O [SEQ ID NO: 264] (HELM PEPTIDE1{[CSCC[C@@H](C(=O)[*:2])N(C)C].W.I.L.I.S.F.W.G}$$$$V2.0) | – | – | – | – | – | inhibited cell growth |
| CC[C@H](C)[C@@H]1NC(=O)[C@H](CO)NC(=O)[C@H](CCC(N)=O)NC(=O)[C@H](C)N(C)C(=O)[C@H](Cc2c[nH]c3ccccc23)NC(=O)[C@@H](N)CCCCNC(=O)CNC(=O)[C@H](Cc2c[nH]c3ccccc23)NC(=O)[C@H](C(C)C)NC(=O)[C@H](CCCNC(=N)N)NC(=O)[C@H](CCC(N)=O)NC(=O)[C@H](C(C)C)NC(=O)[C@H](Cc2c[nH]cn2)NC(=O)[C@H](CCC(N)=O)NC(=O)[C@H](CC(N)=O)NC(=O)[C@H](CC(C)C)NC1=O [compound 20] (HELM PEPTIDE1{K.W.[meA].Q.S.I.L.N.Q.H.V.Q.R.V.W.G}$PEPTIDE1,PEPTIDE1,1:R3-16:R2$$$V2.0; bridges inferred) | – | > 30 | – | > 30 | 106 | – |
| CC[C@H](C)[C@H](NC(=O)[C@H](CC(C)C)NC(=O)[C@H](Cc1ccccc1)NC(=O)[C@H](Cc1c[nH]c2ccccc12)NC(=O)[C@@H](N)CCSC)C(=O)N[C@@H](CO)C(=O)N[C@@H](Cc1ccccc1)C(=O)N[C@@H](Cc1c[nH]c2ccccc12)C(=O)NCC(=O)O [compound 17] (H-MWFLISFWG-OH) | – | < 7.5 | 1.66 | 0.4 to 1 | 98 | – |
| CCCCCCCCCCCCCC(=O)NCC(=O)N[C@@H](Cc1c[nH]c2ccccc12)C(=O)N(C)[C@@H](Cc1c[nH]c2ccccc12)C(=O)N[C@@H](CCC(=O)O)C(=O)N[C@@H](CO)C(=O)N[C@H](C(=O)N[C@@H](CC(C)C)C(=O)N[C@@H](CC(=O)O)C(=O)N[C@@H](CCC(=O)O)C(=O)N[C@@H](Cc1c[nH]cn1)C(=O)N[C@H](C(=O)N[C@@H](CCC(N)=O)C(=O)N[C@@H](CCCNC(=N)N)C(=O)N[C@H](C(=O)N[C@@H](Cc1c[nH]c2ccccc12)C(=O)NCC(=O)O)C(C)C)C(C)C)[C@@H](C)CC [compound 1] (HELM PEPTIDE1{[CCCCCCCCCCCCCC(=O)[*:2]].G.W.[meW].E.S.I.L.D.E.H.V.Q.R.V.W.G}$$$$V2.0) | 18.5 | – | 0.8 | < 0.4 | – | – |
| CCCCCCCCCCCCCCCC(=O)N[C@@H](Cc1c[nH]c2ccccc12)C(=O)N(C)[C@@H](Cc1c[nH]c2ccccc12)C(=O)N[C@@H](CCC(=O)O)C(=O)NC(C)(CO)C(=O)N[C@H](C(=O)N[C@@H](CC(C)C)C(=O)N[C@@H](CC(=O)O)C(=O)N[C@@H](CCC(=O)O)C(=O)N[C@@H](Cc1c[nH]cn1)C(=O)NC(C)(C(=O)N[C@@H](CCC(N)=O)C(=O)N[C@@H](CCCNC(=N)N)C(=O)N[C@H](C(=O)N[C@@H](Cc1c[nH]c2ccccc12)C(=O)NCC(=O)O)C(C)C)C(C)C)[C@@H](C)CC (single isomer, unassigned) [SEQ ID NO: 396, Palmitoyl-W-NmeW-E-aMeS-ILDEH-aMeV-QRVWG-COOH] | – | – | – | – | – | inhibited cell growth |
| CC[C@H](C)C(NC(=O)[C@H](CC(C)C)NC(=O)C(NC(=O)[C@H](Cc1c[nH]c2ccccc12)NC(=O)[C@H](CCSC)NC(=O)C(C)(C)C)[C@@H](C)CC)C(=O)N[C@@H](CO)C(=O)N[C@@H](Cc1ccccc1)C(=O)N[C@@H](Cc1c[nH]c2ccccc12)C(=O)NCC(=O)O (stereo partly drawn) [compound 224] (Piv-MW[ξIle]L[ξIle]SFWG-OH) | – | < 7.5 | 1.04 | < 0.4 | 95.7 | – |

— US12441768B2, “Compositions and methods for treating endometriosis” (EndoMet Biosciences, Inc., priority 2018, dated 2025)
